According to patent US20260152484A1, “HETEROCYCLIC COMPOUNDS AS TRIGGERING RECEPTOR EXPRESSED ON MYELOID CELLS 2 AGONISTS” (Vigil Neuroscience, Inc., priority 2021, published 2026):

The compounds below were run against T1, human TREM2 (Homo sapiens, UniProt Q9NZC2) (assay: Cellular phosphorylation of Syk (AlphaLisa) in HEK293T-hTREM2 cells, TREM2 agonist potency). Details: HEK293 cells expressing human TREM2 and DAP12; pSyk AlphaLisa; Table D.
T1 construct: expressed in transfected cells; host or cells: HEK293T (HEK293T-hTREM2 cells)
Assay type: cell-based
Method: In Vitro Measurement of Triggering Receptor Expressed on Myeloid Cells 2 Activity Using Cellular Phosphorylation of Spleen Tyrosine Kinase (“Syk”) Assays
Measurement of TREM2 agonist potency was done using a HEK cell line expressing human TREM2 and DAP12 (HEK293T-hTREM2 cells). Binding of small molecules to, and activation of, TREM2 increases the phosphorylation of Syk. The resultant levels of Syk phosphorylation are measured using a commercial AlphaLisa reagent kit. To perform the assay, HEK-hTREM2 cells were plated at 14,000 cells per well in a 384 well plate, in 25 μL of complete growth media and incubated at 37° C., 5% CO2 for 20-24 hours.
Prior to the assay, test compounds were diluted in the 384 well plates in assay buffer and allowed to equilibrate for 30 minutes. Growth media was removed from cell plates by inversion on blotting paper, and 25 μL of test articles in assay buffer was added to cells. Cells were incubated for 45 minutes at room temperature. After 45 minutes, assay buffer was removed and 10 μL of lysis buffer was added. Plates were shaken for 20 minutes at 350 RPM at room temperature. After complete lysis, AlphaLisa reagents were added to the lysate, and fluourescence intensity was measured using a Perkin Elmer Envision plate reader. Intensities were used to generate a standard curve, and % activation was calculated. Curve fitting was performed using Prism v9 software, log(agonist) vs response—variable slope (four parameters), and EC50s were calculated from the curve fit.
The results presented in Table D have been generated with the in vitro assay described above. This assay may be used to test any of the compounds described herein to assess and characterize a compound's ability to act as an agonist of TREM2.

T1 sequence (Q9NZC2 19-230): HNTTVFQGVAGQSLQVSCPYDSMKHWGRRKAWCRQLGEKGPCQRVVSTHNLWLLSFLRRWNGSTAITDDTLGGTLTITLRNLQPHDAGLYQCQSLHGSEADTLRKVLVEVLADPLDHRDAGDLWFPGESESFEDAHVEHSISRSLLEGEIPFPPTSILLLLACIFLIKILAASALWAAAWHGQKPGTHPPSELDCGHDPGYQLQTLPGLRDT
T1 sequence (O43914 22-113 partner): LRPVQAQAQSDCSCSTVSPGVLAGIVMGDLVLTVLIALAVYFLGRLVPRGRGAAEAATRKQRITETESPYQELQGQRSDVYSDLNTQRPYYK

Structure (SMILES)	EC50 [µM]
Cc1nc2c(=O)n(CC(O)c3ccc(Cl)cc3)nc(-c3ccc(Cl)cc3)c2s1 (centres unmarked) [compound 26, 7-(4-chlorophenyl)-5-(2-(4-chlorophenyl)-2-hydroxyethyl)-2-methylthiazolo[4,5-d]pyridazin-4(5H)-one]	3 to 100
Cc1nc2c(=O)n(C(C)c3ccc(Cl)cc3)nc(-c3ccc(Cl)cc3)c2s1 (centres unmarked) [compound 27, 7-(4-chlorophenyl)-5-(1-(4-chlorophenyl)ethyl)-2-methylthiazolo[4,5-d]pyridazin-4(5H)-one]	3 to 100
Cc1nc2c(=O)n(CCc3ccccc3)nc(-c3ccc(Cl)cc3)c2s1 [compound 28, 7-(4-chlorophenyl)-2-methyl-5-phenethylthiazolo[4,5-d]pyridazin-4(5H)-one]	3 to 100
Cc1nc2c(=O)n(CCc3ccccc3)nc(-c3ccccc3)c2s1 [compound 29, 2-methyl-5-phenethyl-7-phenylthiazolo[4,5-d]pyridazin-4(5H)-one]	3 to 100
Cc1nc2c(=O)n(C(C)Cc3ccc(Cl)cc3)nc(-c3ccc(Cl)cc3)c2s1 (centres unmarked) [compound 30, 7-(4-chlorophenyl)-5-(1-(4-chlorophenyl)propan-2-yl)-2-methylthiazolo[4,5-d]pyridazin-4 (5H)-one]	3 to 100
Cc1nc2c(=O)n(CC(C)c3ccc(Cl)cc3)nc(-c3ccc(Cl)cc3)c2s1 (centres unmarked) [compound 31, 7-(4-chlorophenyl)-5-(2-(4-chlorophenyl)propyl)-2-methylthiazolo[4,5-d]pyridazin-4(5H)-one]	3 to 100
Cc1nc2c(=O)n(CCc3ccccc3)nc(-c3ccc(Cl)c(Cl)c3)c2s1 [compound 32, 7-(3,4-dichlorophenyl)-2-methyl-5-phenethylthiazolo[4,5-d]pyridazin-4(5H)-one]	3 to 100
Nc1nc2c(=O)n(CCc3ccccc3)nc(-c3ccc(Cl)cc3)c2s1 [compound 33, 2-amino-7-(4-chlorophenyl)-5-phenethylthiazolo[4,5-d]pyridazin-4(5H)-one]	3 to 100
Cc1ccc(-c2nn(CCc3ccccc3)c(=O)c3nc(C)sc23)cc1 [compound 34, 2-methyl-5-phenethyl-7-(p-tolyl)thiazolo[4,5-d]pyridazin-4(5H)-one]	3 to 100
CC(C)C(=O)Nc1nc2c(=O)n(CCc3ccccc3)nc(-c3ccc(Cl)cc3)c2s1 [compound 35, N-[7-(4-chlorophenyl)-4-oxo-5-(2-phenylethyl)thiazolo[4,5-d]pyridazin-2-yl]-2-methyl-propanamide]	3 to 100
O=c1c2nc(NCC3CC3)sc2c(-c2ccc(Cl)cc2)nn1CCc1ccccc1 [compound 36, 7-(4-chlorophenyl)-2-(cyclopropylmethylamino)-5-(2-phenylethyl)thiazolo[4,5-d]pyridazin-4-one]	3 to 100
O=c1c2nc(NCCc3ccccc3)sc2c(-c2ccc(Cl)cc2)nn1CCc1ccccc1 [compound 37, 7-(4-chlorophenyl)-5-(2-phenylethyl)-2-(2-phenylethylamino)thiazolo[4,5-d]pyridazin-4-one]	3 to 100
Cc1nc2c(=O)n(-c3ccc(C(=O)NC(C)C)cc3)nc(-c3ccc(Cl)cc3)c2s1 [compound 38, 4-(7-(4-chlorophenyl)-2-methyl-4-oxothiazolo[4,5-d]pyridazin-5(4H)-yl)-N-isopropylbenzamide]	3 to 100
Cc1nc2c(=O)n(CCc3ccccc3)nc(-c3ccc(O)cc3)c2s1 [compound 39, 7-(4-hydroxyphenyl)-2-methyl-5-phenethylthiazolo[4,5-d]pyridazin-4(5H)-one]	3 to 100
COc1ccc(-c2nn(CCc3ccccc3)c(=O)c3nc(C)sc23)cc1 [compound 40, 7-(4-methoxyphenyl)-2-methyl-5-phenethylthiazolo[4,5-d]pyridazin-4(5H)-one]	3 to 100
Cc1nc2c(=O)n(-c3ccc(OC(F)(F)F)cc3)nc(-c3ccc(Cl)cc3)c2s1 [compound 41, 7-(4-chlorophenyl)-2-methyl-5-(4-(trifluoromethoxy)phenyl)thiazolo[4,5-d]pyridazin-4(5H)-one]	3 to 100
Cc1nc2c(=O)n(-c3ccc(C(=O)O)cc3)nc(-c3ccc(Cl)cc3)c2s1 [compound 42, 4-(7-(4-chlorophenyl)-2-methyl-4-oxothiazolo[4,5-d]pyridazin-5(4H)-yl)benzoic acid]	0.05 to 0.5
